Laboratory results: ChEMBL document CHEMBL4364344, “Design, synthesis and evaluation of activity and pharmacokinetic profile of new derivatives of xanthone and piperazine in the central nervous system” (Bioorg Med Chem Lett, 2019)

Key:
[1] = Apparent clearance in CD-1 mouse plasma at 5 mg/kg, ip measured up to 480 mins by LC/ESI-MS/MS analysis; format: ADME, organism-based
[2] = molecular target: Delta-type opioid receptor (Homo sapiens) (UniProt P41143); experiment: Displacement of [3H]DADLE from recombinant human DOR receptor at 10 uM after 60 mins by radiometric scintillation analysis relative to control
Chain of Delta-type opioid receptor (Homo sapiens) (P41143 whole entry): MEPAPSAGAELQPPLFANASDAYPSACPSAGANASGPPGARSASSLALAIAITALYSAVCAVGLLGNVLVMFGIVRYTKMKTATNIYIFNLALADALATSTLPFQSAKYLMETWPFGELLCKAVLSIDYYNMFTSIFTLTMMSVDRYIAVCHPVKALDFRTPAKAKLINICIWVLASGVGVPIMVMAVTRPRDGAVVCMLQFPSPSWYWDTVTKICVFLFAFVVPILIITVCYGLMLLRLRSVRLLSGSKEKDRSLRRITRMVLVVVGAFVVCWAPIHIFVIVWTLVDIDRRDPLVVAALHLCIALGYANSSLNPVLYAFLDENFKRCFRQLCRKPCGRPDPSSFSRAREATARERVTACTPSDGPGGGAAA

[3] = molecular target: Sodium-dependent dopamine transporter (Homo sapiens) (UniProt Q01959); experiment: Displacement of [3H]BTCP recombinant human dopamine transporter at 10 uM after 120 mins by radiometric scintillation analysis relative to control
Chain of Sodium-dependent dopamine transporter (Homo sapiens) (Q01959 whole entry): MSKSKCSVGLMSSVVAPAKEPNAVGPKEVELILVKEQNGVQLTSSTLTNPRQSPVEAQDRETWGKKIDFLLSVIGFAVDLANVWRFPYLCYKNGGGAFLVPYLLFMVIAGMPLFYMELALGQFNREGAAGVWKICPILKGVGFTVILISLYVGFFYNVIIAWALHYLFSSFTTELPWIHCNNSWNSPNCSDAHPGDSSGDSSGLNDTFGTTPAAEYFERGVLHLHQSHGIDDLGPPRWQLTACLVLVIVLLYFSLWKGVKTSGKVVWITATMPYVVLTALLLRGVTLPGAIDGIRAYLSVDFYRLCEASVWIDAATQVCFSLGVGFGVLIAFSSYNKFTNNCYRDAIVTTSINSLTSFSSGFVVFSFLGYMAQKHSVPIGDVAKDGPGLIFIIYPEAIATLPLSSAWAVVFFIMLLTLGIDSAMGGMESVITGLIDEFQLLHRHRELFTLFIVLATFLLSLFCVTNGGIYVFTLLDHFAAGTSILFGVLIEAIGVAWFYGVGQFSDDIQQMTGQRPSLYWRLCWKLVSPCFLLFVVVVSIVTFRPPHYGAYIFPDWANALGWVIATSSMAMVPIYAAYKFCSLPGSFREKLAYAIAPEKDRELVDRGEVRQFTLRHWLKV

[4] = molecular target: Beta-1 adrenergic receptor (Homo sapiens) (UniProt P08588); experiment: Displacement of [3H](-)CGP 12177 from recombinant human beta1 receptor at 10 uM after 60 mins by radiometric scintillation analysis relative to control
Chain of Beta-1 adrenergic receptor (Homo sapiens) (P08588 whole entry, looked up): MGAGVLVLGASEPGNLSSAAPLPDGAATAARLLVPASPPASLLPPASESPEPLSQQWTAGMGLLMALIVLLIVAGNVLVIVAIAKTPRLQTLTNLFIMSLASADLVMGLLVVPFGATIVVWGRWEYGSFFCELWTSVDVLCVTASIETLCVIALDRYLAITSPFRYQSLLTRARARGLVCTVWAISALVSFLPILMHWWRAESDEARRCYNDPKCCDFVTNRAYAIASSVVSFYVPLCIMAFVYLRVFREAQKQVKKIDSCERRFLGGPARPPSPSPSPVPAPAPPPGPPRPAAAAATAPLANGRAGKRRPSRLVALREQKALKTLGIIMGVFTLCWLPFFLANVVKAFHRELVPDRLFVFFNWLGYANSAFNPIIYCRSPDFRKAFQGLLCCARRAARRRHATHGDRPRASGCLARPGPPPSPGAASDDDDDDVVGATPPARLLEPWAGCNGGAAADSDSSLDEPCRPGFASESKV

[5] = molecular target: Sodium-dependent noradrenaline transporter (Homo sapiens) (UniProt P23975); experiment: Displacement of [3H]nisoxetine recombinant human norepinephrine transporter at 10 uM after 120 mins by radiometric scintillation analysis relative to control
Chain of Sodium-dependent noradrenaline transporter (Homo sapiens) (P23975 whole entry): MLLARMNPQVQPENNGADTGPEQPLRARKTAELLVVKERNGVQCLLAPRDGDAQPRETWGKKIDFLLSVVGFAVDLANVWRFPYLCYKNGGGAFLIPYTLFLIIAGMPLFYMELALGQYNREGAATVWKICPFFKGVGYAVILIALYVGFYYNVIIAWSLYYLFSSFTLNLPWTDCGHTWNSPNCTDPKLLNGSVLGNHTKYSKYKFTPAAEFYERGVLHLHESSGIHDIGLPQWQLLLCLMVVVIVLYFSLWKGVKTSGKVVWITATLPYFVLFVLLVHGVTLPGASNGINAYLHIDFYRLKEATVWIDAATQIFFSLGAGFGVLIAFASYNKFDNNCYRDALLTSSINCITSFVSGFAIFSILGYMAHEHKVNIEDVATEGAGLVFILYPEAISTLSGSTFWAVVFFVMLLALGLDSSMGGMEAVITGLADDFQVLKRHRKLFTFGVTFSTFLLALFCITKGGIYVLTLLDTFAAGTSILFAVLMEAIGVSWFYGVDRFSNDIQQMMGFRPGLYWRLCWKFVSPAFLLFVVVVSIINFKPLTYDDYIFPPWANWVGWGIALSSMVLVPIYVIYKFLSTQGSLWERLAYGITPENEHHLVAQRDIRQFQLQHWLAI

[6] = AUC (0 to t) in CD-1 mouse plasma at 5 mg/kg, ip measured up to 480 mins by LC/ESI-MS/MS analysis; format: ADME, organism-based; parameters: dose 5 mg/kg, time < 8 hr, route intraperitoneal
[7] = molecular target: Muscarinic acetylcholine receptor M3 (Homo sapiens) (UniProt P20309); experiment: Displacement of [3H]4-DAMP from recombinant human M3 receptor at 10 uM after 60 mins by radiometric scintillation analysis relative to control
Chain of Muscarinic acetylcholine receptor M3 (Homo sapiens) (P20309 whole entry, looked up): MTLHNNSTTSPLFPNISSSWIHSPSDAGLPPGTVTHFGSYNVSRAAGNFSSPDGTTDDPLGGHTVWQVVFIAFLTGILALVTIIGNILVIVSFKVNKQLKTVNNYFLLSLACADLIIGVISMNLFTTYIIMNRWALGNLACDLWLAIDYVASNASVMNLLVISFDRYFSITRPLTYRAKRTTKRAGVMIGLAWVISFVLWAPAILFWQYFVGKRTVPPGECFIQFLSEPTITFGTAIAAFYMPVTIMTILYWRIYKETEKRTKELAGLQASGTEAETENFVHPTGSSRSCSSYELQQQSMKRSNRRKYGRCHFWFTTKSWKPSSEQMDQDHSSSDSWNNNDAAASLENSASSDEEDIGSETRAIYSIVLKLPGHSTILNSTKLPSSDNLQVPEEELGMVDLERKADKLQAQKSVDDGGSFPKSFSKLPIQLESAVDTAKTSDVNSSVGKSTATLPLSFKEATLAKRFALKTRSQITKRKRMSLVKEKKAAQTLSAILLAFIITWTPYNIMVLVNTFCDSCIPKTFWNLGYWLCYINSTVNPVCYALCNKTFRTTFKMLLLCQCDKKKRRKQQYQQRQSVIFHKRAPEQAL

[8] = molecular target: 5-hydroxytryptamine receptor 5A (Homo sapiens) (UniProt P47898); experiment: Displacement of [3H]LSD from recombinant human 5-HT5A receptor at 10 uM after 120 mins by radiometric scintillation analysis relative to control
Chain of 5-hydroxytryptamine receptor 5A (Homo sapiens) (P47898 whole entry): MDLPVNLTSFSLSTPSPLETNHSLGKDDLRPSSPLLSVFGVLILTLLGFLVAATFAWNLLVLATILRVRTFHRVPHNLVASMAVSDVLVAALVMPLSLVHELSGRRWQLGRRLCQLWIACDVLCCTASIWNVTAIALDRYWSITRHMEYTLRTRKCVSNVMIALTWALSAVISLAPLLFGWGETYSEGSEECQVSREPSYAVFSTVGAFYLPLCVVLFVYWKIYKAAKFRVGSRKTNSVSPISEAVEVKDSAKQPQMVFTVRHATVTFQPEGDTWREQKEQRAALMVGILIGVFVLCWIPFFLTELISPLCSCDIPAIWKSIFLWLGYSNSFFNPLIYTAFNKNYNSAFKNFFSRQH

[9] = molecular target: 5-hydroxytryptamine receptor 7 (Homo sapiens) (UniProt P34969); experiment: Displacement of [3H]LSD from recombinant human 5-HT7 receptor at 10 uM after 120 mins by radiometric scintillation analysis relative to control
[10] = MRT in CD-1 mouse plasma at 5 mg/kg, ip measured up to 480 mins by LC/ESI-MS/MS analysis; format: ADME, organism-based
[11] = molecular target: 5-hydroxytryptamine receptor 6 (Homo sapiens) (UniProt P50406); experiment: Displacement of [3H]LSD from recombinant human 5-HT6 receptor at 10 uM after 120 mins by radiometric scintillation analysis relative to control
[12] = molecular target: Cannabinoid receptor 1 (Homo sapiens) (UniProt P21554); experiment: Displacement of [3H]CP 55940 from recombinant human CB1 receptor at 10 uM by radiometric scintillation analysis relative to control
Chain of Cannabinoid receptor 1 (Homo sapiens) (P21554 whole entry): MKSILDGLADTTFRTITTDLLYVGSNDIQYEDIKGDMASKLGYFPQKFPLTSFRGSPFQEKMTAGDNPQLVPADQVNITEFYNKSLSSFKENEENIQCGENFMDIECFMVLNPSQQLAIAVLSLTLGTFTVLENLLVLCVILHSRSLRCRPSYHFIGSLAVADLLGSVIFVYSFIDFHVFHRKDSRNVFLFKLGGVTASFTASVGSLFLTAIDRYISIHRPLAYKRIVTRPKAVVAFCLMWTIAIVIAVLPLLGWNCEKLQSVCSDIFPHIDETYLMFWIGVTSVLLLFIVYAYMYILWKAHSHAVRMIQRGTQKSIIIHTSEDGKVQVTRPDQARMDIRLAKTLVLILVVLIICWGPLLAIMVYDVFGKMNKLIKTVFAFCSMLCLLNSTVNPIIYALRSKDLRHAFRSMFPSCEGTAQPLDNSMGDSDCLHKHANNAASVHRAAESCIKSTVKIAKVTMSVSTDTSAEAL

[13] = molecular target: D(2) dopamine receptor (Homo sapiens) (UniProt P14416); experiment: Displacement of [3H]methyl-spiperone from recombinant human D2S dopamine receptor at 10 uM after 60 mins by radiometric scintillation analysis relative to control
Chain of D(2) dopamine receptor (Homo sapiens) (P14416 whole entry): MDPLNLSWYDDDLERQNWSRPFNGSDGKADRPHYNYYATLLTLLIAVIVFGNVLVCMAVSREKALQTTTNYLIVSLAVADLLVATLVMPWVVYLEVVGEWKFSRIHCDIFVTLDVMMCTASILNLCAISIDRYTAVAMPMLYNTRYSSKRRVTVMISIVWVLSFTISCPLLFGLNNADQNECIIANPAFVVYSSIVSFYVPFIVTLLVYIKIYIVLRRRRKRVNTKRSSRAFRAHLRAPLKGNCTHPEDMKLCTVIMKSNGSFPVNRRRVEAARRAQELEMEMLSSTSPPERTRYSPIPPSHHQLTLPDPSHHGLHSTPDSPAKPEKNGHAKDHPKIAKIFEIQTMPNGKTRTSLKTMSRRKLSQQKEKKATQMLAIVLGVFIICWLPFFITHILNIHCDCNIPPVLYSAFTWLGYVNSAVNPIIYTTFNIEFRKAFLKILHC

[14] = Apparent volume of distribution in CD-1 mouse plasma at 5 mg/kg, ip measured up to 480 mins by LC/ESI-MS/MS analysis; format: ADME, organism-based
[15] = molecular target: B2 bradykinin receptor (Homo sapiens) (UniProt P30411); experiment: Displacement of [3H]bradykinin from recombinant human B2 receptor at 10 uM after 60 mins by radiometric scintillation analysis relative to control
Chain of B2 bradykinin receptor (Homo sapiens) (P30411 whole entry): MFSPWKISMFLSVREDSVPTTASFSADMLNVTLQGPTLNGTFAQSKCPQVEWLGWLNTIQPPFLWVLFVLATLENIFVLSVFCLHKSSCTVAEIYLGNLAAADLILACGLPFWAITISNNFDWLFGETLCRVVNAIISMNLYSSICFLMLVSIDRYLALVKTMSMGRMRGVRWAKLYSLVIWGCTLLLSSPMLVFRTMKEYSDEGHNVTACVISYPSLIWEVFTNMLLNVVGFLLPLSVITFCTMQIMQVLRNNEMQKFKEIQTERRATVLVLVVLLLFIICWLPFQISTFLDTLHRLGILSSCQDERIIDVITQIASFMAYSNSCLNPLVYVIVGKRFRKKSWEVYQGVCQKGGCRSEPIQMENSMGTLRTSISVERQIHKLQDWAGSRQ

[16] = Mutagenicity in Salmonella typhimurium TA100 at 5 ug/plate preincubated for 20 mins followed by addition of top agar and measured after 48 hrs by Ames test; format: toxicity; conditions: salmonella enterica subsp. enterica serovar typhimurium
[17] = Displacement of [3H]batrachotoxinin from rat brain sodium channel site 2 after 60 mins by scintillation counting analysis
[18] = molecular target: 5-hydroxytryptamine receptor 2B (Homo sapiens, UniProt P41595); experiment: Displacement of [125I](+/-)DOI from recombinant human 5-HT2B receptor after 60 mins by radiometric scintillation analysis
Chain of 5-hydroxytryptamine receptor 2B (P41595 whole entry): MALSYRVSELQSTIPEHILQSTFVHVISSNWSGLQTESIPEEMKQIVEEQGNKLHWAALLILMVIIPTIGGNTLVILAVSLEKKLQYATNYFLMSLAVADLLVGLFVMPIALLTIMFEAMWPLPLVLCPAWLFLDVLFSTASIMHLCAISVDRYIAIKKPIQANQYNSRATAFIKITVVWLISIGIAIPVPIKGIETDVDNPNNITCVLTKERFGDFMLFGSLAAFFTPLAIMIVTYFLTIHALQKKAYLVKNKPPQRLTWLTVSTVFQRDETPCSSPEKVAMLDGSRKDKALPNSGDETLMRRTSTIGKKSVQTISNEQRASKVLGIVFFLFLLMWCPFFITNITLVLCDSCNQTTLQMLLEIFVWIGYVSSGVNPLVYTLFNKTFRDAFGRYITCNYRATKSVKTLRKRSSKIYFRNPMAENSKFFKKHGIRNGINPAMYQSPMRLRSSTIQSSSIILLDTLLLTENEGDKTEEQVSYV

Cl.Cl.O=c1c2cc(Cl)ccc2oc2ccc(CN3CCN(CCOCCO)CC3)cc12
CL/F [1]: 12.2 mL/min/kg | inhibition [2]: 27.1% | inhibition [3]: 28.7% | inhibition [4]: 2.3% | inhibition [5]: 43.1% | AUC(0-t) at 8 h [6]: 5490 ng·h/mL | inhibition [7]: 50.1% | inhibition [8]: 13.8% | inhibition [9]: 5.3% | MRT [10]: 2.59 h | inhibition [11]: 2.5% | inhibition [12]: -0.1% | inhibition [13]: 27.4% | Vd/F [14]: 3.06 L/kg | inhibition [15]: -7% | Activity_index [16]: 0.66 | Ki [17]: 1340 nM | Ki [18]: 2900 nM
